The results in this text go back to US12187709B2 (Genentech, Inc., priority 2021, dated 2025).

SMILES strings stand for the structures. pIC50, pKd: −log10 of the molar value.

Assay [1] concerns the target c-Cbl (Homo sapiens (Human), UniProt P22681). Put plainly: C-Cbl LCK Ub TR-FRET assay (C-cbl Lck HTRF). It is filed as biochemical. A digest of the protocol:
(§1)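 Detection reagents added, brief spin, 20 min RT. IC50 fit normalized to no-LCK (low) and DMSO (high) controls.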

The target in assay [2] is Cbl-b (Homo sapiens (Human), UniProt Q13191). Put plainly: Cbl-b LCK Ub TR-FRET assay (Cbl-b Lck HTRF). It is filed as biochemical. To be noted: for pIC50: Cbl-b LCK Ub TR-FRET, Example 121; for (fold-selectivity) Cbl-b and C-Cbl Selectivity: ratio C-cbl Lck HTRF IC50 / Cbl-b Lck HTRF IC50. A digest of the protocol:
as §1

In assay [3] the target is Human Cbl-b (residues 40-426) (Homo sapiens (Human), UniProt Q13191). Put plainly: Cbl-b SPR assay. The class given is binding. The note with it: for Fold of selectivity: C-cbl SPR Kd vs Cbl-b SPR Kd; for pKd: SPR, 20° C. A digest of the protocol: (§2)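 First, protein is captured to 1300-1500 RU. Then compound runs in single cycle kinetics, a blank plus 5 two-fold concentrations up to 500 nM (120 s contact, 50 μl/min, 450 s dissociation). Chaser injections (20 s, 30 μl/min) track occupancy, giving kd, which is fixed when fitting the titration.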
Background: Surface plasmon resonance follows binding to a sensor surface in real time, without labels.

Assay [4] has as its target c-Cbl (residues 47-435) (Homo sapiens (Human), UniProt P22681). Put plainly: c-Cbl SPR assay. It is filed as binding. The note with it: 20° C. The procedure, abridged:
as §2

Cbl-b, sequence (Q13191 40-426): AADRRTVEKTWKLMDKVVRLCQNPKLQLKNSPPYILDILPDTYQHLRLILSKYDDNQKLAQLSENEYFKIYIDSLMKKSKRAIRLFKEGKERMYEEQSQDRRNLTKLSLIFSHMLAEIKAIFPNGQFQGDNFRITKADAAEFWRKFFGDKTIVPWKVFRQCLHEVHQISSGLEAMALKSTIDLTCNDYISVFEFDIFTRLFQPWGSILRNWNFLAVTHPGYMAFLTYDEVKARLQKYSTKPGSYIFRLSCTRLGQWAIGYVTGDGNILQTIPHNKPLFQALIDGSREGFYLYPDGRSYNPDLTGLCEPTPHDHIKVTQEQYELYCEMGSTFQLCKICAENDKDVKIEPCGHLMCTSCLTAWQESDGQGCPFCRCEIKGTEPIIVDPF
Human Cbl-b (residues 40-426), sequence (Q13191 40-426): as above
c-Cbl (residues 47-435), sequence (P22681 47-435): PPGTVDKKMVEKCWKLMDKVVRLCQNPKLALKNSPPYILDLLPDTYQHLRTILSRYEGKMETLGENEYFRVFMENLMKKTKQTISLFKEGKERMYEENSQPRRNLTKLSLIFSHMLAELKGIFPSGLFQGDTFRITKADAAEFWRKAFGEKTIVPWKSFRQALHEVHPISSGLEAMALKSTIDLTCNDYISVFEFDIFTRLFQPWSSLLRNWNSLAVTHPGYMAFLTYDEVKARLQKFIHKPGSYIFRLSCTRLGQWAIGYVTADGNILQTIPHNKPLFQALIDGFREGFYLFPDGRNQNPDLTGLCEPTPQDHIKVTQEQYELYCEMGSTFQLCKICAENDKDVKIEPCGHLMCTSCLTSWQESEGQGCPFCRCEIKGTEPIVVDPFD
c-Cbl, sequence (P22681 47-435): as above

As a reminder, the pIC50 is −log10 of the IC50, conventionally taken in molar units. Read a low pIC50 as a large IC50. By pKd is commonly meant −log10 of the Kd, conventionally taken in molar units. A lower pKd goes with a high Kd. As to `CO[C@H]1C[C@](c2cccc(N3Cc4c(cc(CN[C@@H](C)C5CCC5)cc4C(F)(F)F)C3=O)c2)(c2nncn2C)C1` [Compound 470, 6-((((S)-1-cyclobutylethyl)amino)methyl)-2-(3-((1r,3S)-3-methoxy-1-(4-methyl-4H-1,2,4-triazol-3-yl)cyclobutyl)phenyl)-4-(trifluoromethyl)isoindolin-1-one], the pIC50 in assay [1] was 8.35; in assay [2] it was 8.36. Moreover, the “(fold-selectivity) Cbl-b and C-Cbl Selectivity” value in assay [2] stood at 1.0x. For the same molecule, the Fold of selectivity in assay [3] amounted to 2.9×. Besides, the pKd in assay [3] was 9.46; in assay [4], 8.82.

`CO[C@H]1C[C@](c2cccc(N3Cc4c(cc(CNC5(C)CC(F)(F)C5)cc4C(F)(F)F)C3=O)c2)(c2nncn2C)C1` [Compound 471, 6-(((3,3-difluoro-1-methylcyclobutyl)amino)methyl)-2-(3-((1r,3r)-3-methoxy-1-(4-methyl-4H-1,2,4-triazol-3-yl)cyclobutyl)phenyl)-4-(trifluoromethyl)isoindolin-1-one] gave a pIC50 in assay [1] of 7.44. Moreover, in assay [2], the pIC50 was 8.08; the “(fold-selectivity) Cbl-b and C-Cbl Selectivity” value was 4.3x. Besides, in assay [3], the Fold of selectivity came to 11× and the pKd was 8.08. Moreover, in assay [4], the pKd is 7.04.

As for `CO[C@H]1C[C@](c2cccc(N3Cc4c(cc(CNCC5(O)CC5)cc4C(F)(F)F)C3=O)c2)(c2nncn2C)C1` [Compound 473, 6-((((1-hydroxycyclopropyl)methyl)amino)methyl)-2-(3-((1r,3r)-3-methoxy-1-(4-methyl-4H-1,2,4-triazol-3-yl)cyclobutyl)phenyl)-4-(trifluoromethyl)isoindolin-1-one], the pIC50 in assay [1] is 7.30. In addition, in assay [2], the pIC50 was 7.85; the “(fold-selectivity) Cbl-b and C-Cbl Selectivity” value is given as 3.6x. In assay [3], this molecule gave a Fold of selectivity of 11× and a pKd of 8.12. The molecule further had a pKd in assay [4] of 7.07.

Regarding `CO[C@H]1C[C@](c2cccc(N3Cc4c(cc(CNCC5(C)CC5)cc4C(F)(F)F)C3=O)c2)(c2nncn2C)C1` [Compound 474, 2-(3-((1r,3r)-3-methoxy-1-(4-methyl-4H-1,2,4-triazol-3-yl)cyclobutyl)phenyl)-6-((((1-methylcyclopropyl)methyl)amino)methyl)-4-(trifluoromethyl)isoindolin-1-one], the pIC50 in assay [1] is 7.29; in assay [2] it was 7.96. Besides, in assay [2], the “(fold-selectivity) Cbl-b and C-Cbl Selectivity” value was determined as 4.8x. In addition, the Fold of selectivity in assay [3] is 14×. Further, the pKd in assay [3] is 8.32; in assay [4], 7.17.

For `CO[C@H]1C[C@](c2cccc(N3Cc4c(cc(CNC5(C)CC5)cc4C(F)(F)F)C3=O)c2)(c2nncn2C)C1` [Compound 475, 2-(3-((1r,3r)-3-methoxy-1-(4-methyl-4H-1,2,4-triazol-3-yl)cyclobutyl)phenyl)-6-(((1-methylcyclopropyl)amino)methyl)-4-(trifluoromethyl)isoindolin-1-one], the pIC50 in assay [1] was 7.64; in assay [2], 8.06. Moreover, the “(fold-selectivity) Cbl-b and C-Cbl Selectivity” value in assay [2] was 3.3x. The Fold of selectivity in assay [3] turned out to be 13×. Also, the values for the pKd in assay [3] and in assay [4] were 8.44 and 7.35, respectively.

As for `CO[C@H]1C[C@](c2cccc(N3Cc4c(cc(CNC5COC5)cc4C(F)(F)F)C3=O)c2)(c2nncn2C)C1` [Compound 476, 2-(3-((1r,3r)-3-methoxy-1-(4-methyl-4H-1,2,4-triazol-3-yl)cyclobutyl)phenyl)-6-((oxetan-3-ylamino)methyl)-4-(trifluoromethyl)isoindolin-1-one], in assay [1], the pIC50 is 6.24. In assay [2], the pIC50 was 7.09; the “(fold-selectivity) Cbl-b and C-Cbl Selectivity” value is recorded as 7.1x. In assay [3], this molecule showed a Fold of selectivity of 11× and a pKd of 7.02. The same molecule had a pKd in assay [4] of 5.96.

Molecule `CO[C@H]1C[C@](c2cccc(N3Cc4c(cc(CNC5CC5)cc4C(F)(F)F)C3=O)c2)(c2nncn2C)C1` [Compound 477, 6-((cyclopropylamino)methyl)-2-(3-((1r,3r)-3-methoxy-1-(4-methyl-4H-1,2,4-triazol-3-yl)cyclobutyl)phenyl)-4-(trifluoromethyl)isoindolin-1-one] had a pIC50 in assay [1] of 7.03. Further, in assay [2], the pIC50 was 7.77; the “(fold-selectivity) Cbl-b and C-Cbl Selectivity” value came to 5.6x. Further, in assay [3], the Fold of selectivity was 11× and the pKd is 7.96. Besides, the pKd in assay [4] was 6.89.

In turn, `CO[C@H]1C[C@](c2cccc(N3Cc4c(cc(CN5CC(C)(O)C5)cc4C(F)(F)F)C3=O)c2)(c2nncn2C)C1` [Compound 478, 6-((3-hydroxy-3-methylazetidin-1-yl)methyl)-2-(3-((1r,3r)-3-methoxy-1-(4-methyl-4H-1,2,4-triazol-3-yl)cyclobutyl)phenyl)-4-(trifluoromethyl)isoindolin-1-one] showed a pIC50 in assay [1] of 6.08. In addition, in assay [2], the pIC50 is 6.89; the “(fold-selectivity) Cbl-b and C-Cbl Selectivity” value is on record as 6.4x. For the same molecule, in assay [3], the Fold of selectivity was determined as 8.7× and the negative logarithm of the Kd (pKd) is 6.92. In assay [4], this molecule gave a pKd of 5.96.

With `CO[C@H]1C[C@](c2cccc(N3Cc4c(cc(CN5CCC5)cc4C(F)(F)F)C3=O)c2)(c2nncn2C)C1` [Compound 480, 6-(azetidin-1-ylmethyl)-2-(3-((1r,3r)-3-methoxy-1-(4-methyl-4H-1,2,4-triazol-3-yl)cyclobutyl)phenyl)-4-(trifluoromethyl)isoindolin-1-one], the pIC50 is 6.55 in assay [1] and 7.47 in assay [2]. Also, the “(fold-selectivity) Cbl-b and C-Cbl Selectivity” value in assay [2] is given as 7.9x. For the same molecule, in assay [3], the Fold of selectivity is recorded as 11×. The pKd in assay [3] was 7.35; in assay [4], 6.31.

In turn, `CO[C@H]1C[C@](c2cccc(N3Cc4c(cc(CNCC(C)(C)C)cc4C(F)(F)F)C3=O)c2)(c2nncn2C)C1` [Compound 481, 2-(3-((1r,3r)-3-methoxy-1-(4-methyl-4H-1,2,4-triazol-3-yl)cyclobutyl)phenyl)-6-((neopentylamino)methyl)-4-(trifluoromethyl)isoindolin-1-one] showed a pIC50 in assay [1] of 7.60. Besides, in assay [2], the pIC50 is 8.21; the “(fold-selectivity) Cbl-b and C-Cbl Selectivity” value was 4.0x. In assay [3], this molecule gave a Fold of selectivity of 18× and a pKd of 8.82. In assay [4], this molecule had a pKd of 7.57.

The molecule `CO[C@H]1C[C@](c2cccc(N3Cc4c(cc(CNCC5CC5(F)F)cc4C(F)(F)F)C3=O)c2)(c2nncn2C)C1` (stereo partly drawn) [Compound 482, 6-((((2,2-difluorocyclopropyl)methyl)amino)methyl)-2-(3-((1r,3r)-3-methoxy-1-(4-methyl-4H-1,2,4-triazol-3-yl)cyclobutyl)phenyl)-4-(trifluoromethyl)isoindolin-1-one] gave a pIC50 in assay [1] of 7.70. In assay [2], the pIC50 was 8.28; the “(fold-selectivity) Cbl-b and C-Cbl Selectivity” value is 3.7x. In assay [3], this molecule showed a Fold of selectivity of 15× and a pKd of 8.72. The molecule also gave a pKd in assay [4] of 7.52.

As for `CO[C@H]1C[C@](c2cccc(N3Cc4c(cc(CNCC(C)(C)F)cc4C(F)(F)F)C3=O)c2)(c2nncn2C)C1` [Compound 483, 6-(((2-fluoro-2-methylpropyl)amino)methyl)-2-(3-((1r,3r)-3-methoxy-1-(4-methyl-4H-1,2,4-triazol-3-yl)cyclobutyl)phenyl)-4-(trifluoromethyl)isoindolin-1-one], the pIC50 in assay [1] was 7.24. Also, in assay [2], the pIC50 was 8.00; the “(fold-selectivity) Cbl-b and C-Cbl Selectivity” value is recorded as 5.8x. In addition, in assay [3], the Fold of selectivity came out at 18× and the pKd is 8.34. The pKd in assay [4] was 7.08.

The molecule `CO[C@H]1C[C@](c2cccc(N3Cc4c(cc(CN[C@]5(C)C[C@H](O)C5)cc4C(F)(F)F)C3=O)c2)(c2nncn2C)C1` [Compound 484, 6-((((1s,3S)-3-hydroxy-1-methylcyclobutyl)amino)methyl)-2-(3-((1r,3R)-3-methoxy-1-(4-methyl-4H-1,2,4-triazol-3-yl)cyclobutyl)phenyl)-4-(trifluoromethyl)isoindolin-1-one] gave a pIC50 in assay [1] of 6.59. In addition, in assay [2], the pIC50 is 7.59; the “(fold-selectivity) Cbl-b and C-Cbl Selectivity” value was 10x. In assay [3], the Fold of selectivity stood at 13× and the pKd is 7.89. The molecule further showed a negative logarithm of the Kd (pKd) in assay [4] of 6.70.

The molecule `CO[C@H]1C[C@](c2cccc(N3Cc4c(cc(CNC56CC(C5)C6)cc4C(F)(F)F)C3=O)c2)(c2nncn2C)C1` [Compound 485, 6-((bicyclo[1.1.1]pentan-1-ylamino)methyl)-2-(3-((1r,3r)-3-methoxy-1-(4-methyl-4H-1,2,4-triazol-3-yl)cyclobutyl)phenyl)-4-(trifluoromethyl)isoindolin-1-one] had a pIC50 in assay [1] of 7.17. For the same molecule, in assay [2], the pIC50 is 7.89; the “(fold-selectivity) Cbl-b and C-Cbl Selectivity” value was determined as 5.2x. In assay [3], this molecule had a Fold of selectivity of 14× and a pKd of 8.13. This molecule also showed a pKd in assay [4] of 6.96.

With `CO[C@H]1C[C@](c2cccc(N3Cc4c(cc(CNCC5(F)CC5)cc4C(F)(F)F)C3=O)c2)(c2nncn2C)C1` [Compound 486, 6-((((1-fluorocyclopropyl)-methyl)amino)methyl)-2-(3-((1r,3r)-3-methoxy-1-(4-methyl-4H-1,2,4-triazol-3-yl)cyclobutyl)phenyl)-4-(trifluoromethyl)isoindolin-1-one], the pIC50 is 6.96 in assay [1] and 7.74 in assay [2]. In addition, the “(fold-selectivity) Cbl-b and C-Cbl Selectivity” value in assay [2] is 6.0x. Also, in assay [3], the Fold of selectivity stood at 11×. Besides, the pKd in assay [3] was 8.09; in assay [4], 7.01.
